In ChEMBL document CHEMBL1150494, “Inhibitory effect on HT-1080 tumor cell invasion in vitro using 9-(2-hydroxyethyl)adenine 2-phosphates” (1997) one finds Inhibition ratio data, which are given here for 6 compounds.

In experiment [1] the test system is HT-1080. In words: In vitro inhibitory activity against HT1080 tumor cell invasion using Matrigel (MG) at a concentration of 100 uM. Format: functional, Homo sapiens.
The target in experiment [2] is Matrix metalloproteinase-9 (Homo sapiens) (UniProt P14780). In words: Inhibition of collagen IV degradation by matrix metalloprotease-9 at 10 uM.
The target is the same in experiment [3]. Put plainly: Inhibition of collagen IV degradation by matrix metalloprotease-9 at 100 uM.
Experiment [4] concerns HT-1080. In words: In vitro inhibitory activity against HT1080 tumor cell invasion using Matrigel (MG) at a concentration of 10 uM. In kind it is functional, Homo sapiens.

Matrix metalloproteinase-9 (Homo sapiens), sequence (P14780 whole entry): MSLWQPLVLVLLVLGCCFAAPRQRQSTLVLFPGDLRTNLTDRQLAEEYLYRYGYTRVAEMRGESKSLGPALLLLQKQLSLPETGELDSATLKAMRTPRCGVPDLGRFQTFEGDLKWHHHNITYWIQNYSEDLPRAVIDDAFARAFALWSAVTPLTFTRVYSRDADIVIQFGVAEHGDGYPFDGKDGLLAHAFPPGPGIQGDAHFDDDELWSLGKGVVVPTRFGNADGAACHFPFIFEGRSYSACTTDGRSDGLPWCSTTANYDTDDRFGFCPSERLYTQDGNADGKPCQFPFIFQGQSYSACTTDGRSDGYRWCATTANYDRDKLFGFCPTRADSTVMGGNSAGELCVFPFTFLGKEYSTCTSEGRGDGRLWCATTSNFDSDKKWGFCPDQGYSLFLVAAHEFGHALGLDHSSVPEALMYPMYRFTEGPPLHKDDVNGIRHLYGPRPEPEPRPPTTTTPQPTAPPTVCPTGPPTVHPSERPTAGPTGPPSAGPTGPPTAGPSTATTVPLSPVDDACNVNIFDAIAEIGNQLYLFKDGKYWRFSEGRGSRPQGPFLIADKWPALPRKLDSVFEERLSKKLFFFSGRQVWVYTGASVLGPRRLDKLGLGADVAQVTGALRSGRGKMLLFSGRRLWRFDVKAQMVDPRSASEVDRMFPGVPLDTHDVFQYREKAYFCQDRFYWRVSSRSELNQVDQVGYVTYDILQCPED

Turning to `Nc1ncnc2c1ncn2CCOP(=O)(O)O`, the Inhibition ratio in the experiment on HT-1080 [1] was found to be 53%; in experiment [2] it was 32%; in experiment [3] it was 57%; with HT-1080 [4], 46%.
In the same order, the values of `Nc1ncnc2c1ncn2CCO` are approximately 50%, 2%, 18% and approximately 2%.
As to `Nc1ncnc2c1ncn2CCOP(=O)(O)OP(=O)(O)OP(=O)(O)O`, the Inhibition ratio in the experiment with HT-1080 [1] is approximately 36%; in experiment [2], 53%; in experiment [3] it was 69%; with HT-1080 [4], approximately 35%.
On to `O=P(O)(O)OCCn1cnc2c(Cl)ncnc21`, for which the Inhibition ratio was approximately 12% in the experiment on HT-1080 [1] and 12% in experiment [3].
`Nc1ncnc2c1nc(Br)n2CCOP(=O)(O)O`: the Inhibition ratio was approximately 41% in the experiment on HT-1080 [1], 23% in experiment [2], 41% in experiment [3] and approximately 23% in the experiment with HT-1080 [4].
For the compound `CNc1ncnc2c1ncn2CCOP(=O)(O)O`, the Inhibition ratio in the experiment on HT-1080 [1] was approximately 54%; in experiment [2], 46%; in experiment [3] it was 55%; in the experiment on HT-1080 [4], approximately 46%.
